According to patent US20140155471A1, “TREATING NEUROLOGICAL DISEASE OR INJURY WITH A DYNAMIN-RELATED PROTEIN 1 (DRP1) ENCODING NUCLEIC ACID” (UNIVERSITY OF ROCHESTER, priority 2011, published 2014):

How the values were obtained:
[1] = test system: MPTP mouse model of PD; test: MPTP mouse model, neurorescue (treatment 7 days after last MPTP injection); type: in vivo, C57BL/6 mice; conditions: mdivi-1 i.p. twice daily for 3 days starting 7 days after last MPTP injection
Procedure: (§1) For all studies, 10-12 week old male C57BL/6 mice were randomly assigned to receive intraperitoneal injections of either MPTP (25 mg/kg, Sigma, St. Louis, Mo.) or saline once daily for 5 days. For the neuroprotection studies, mice received twice daily i.p. injections (20 mg/kg) with mdivi-1 beginning on the day of the first MPTP injection and continued until mice were sacrificed 7 days after last MPTP injection. For the neurorescue studies, mice received twice daily i.p. injections (20 mg/kg) with mdivi-1 beginning 7 days after the last MPTP injection and continued for a total of 3 days. To maximize the data yielded from each animal, mice were sacrificed by decapitation and the freshly removed brains were divided into 3 pieces for separate measures of nigrostriatal damage. […]
(§2) Brains from saline and MPTP treated mice were sectioned (30 μm) and processed for stereological cell counts using the optical fractionator method as described 35. Striatal optical densities of TH immunoreactivity were also quantified.
Stereotactic implantation of guide cannula was performed under ketamine/xylazine (65/6 mg/kg i.p.) anesthesia using the following striatal coordinates, relative to bregma: anterior-posterior +0.5 mm, lateral −2.0 mm, dorsal-ventral −1.5 mm (from surface of brain). […] Samples from the same animals were measured for the contents of mdivi-1, MPP+, DA, and its metabolites. […]

[2] = In vivo microdialysis and HPLC of mdivi-1 in striatal dialysate (blood-brain barrier crossing); design: species or system mice
Procedure: Stereotactic implantation of guide cannula was performed under ketamine/xylazine (65/6 mg/kg i.p.) anesthesia using the following striatal coordinates, relative to bregma: anterior-posterior +0.5 mm, lateral −2.0 mm, dorsal-ventral −1.5 mm (from surface of brain). […] Samples from the same animals were measured for the contents of mdivi-1, MPP+, DA, and its metabolites. Levels of these molecules and the amount of KCl (delivered to the striatum) were calculated on the basis of the standard curves, probe efficiency (˜8%), flow rate, and duration of sample collection as described in Cui et al. “The organic cation transporter-3 is a pivotal modulator of neurodegeneration in the nigrostriatal dopaminergic pathway,” PNAS USA 106: 8043-8048 (2009).
(§3) A 12-channel CoulArray® (ESA Inc., Chelmsford, Mass.) equipped with a highly sensitive amperometric microbore cell (model 5041, ESA Inc.) was used to analyze the content of DA and its metabolites with the cell potential set at +220 mV as described in Cui et al. For measurements of total striatal DA content, mice were sacrificed and their striata were dissected out and stored at −80° C. until analysis. […] Peaks were detected by an ESA 8 Channel CoulArray® system. […]
The ability of Mitochondrial Division Inhibitor-1 (mdivi-1), a Drp1 inhibitor, to cross the blood-brain barrier was assessed. […]

[3] = test system: MPTP mouse model of PD; test: MPTP mouse model, neuroprotection (active neurodegeneration); type: in vivo, C57BL/6 mice; conditions: mdivi-1 delivered together with MPTP
Procedure: as §1, with “days.” for “days. To maximize the data yielded from each animal, mice were sacrificed by decapitation and the freshly removed brains were divided into 3 pieces for separate measures of nigrostriatal damage.”
as §2, §3

[4] = target: T1, mouse dopamine transporter (Mus musculus, UniProt Q61327); test: Transport studies in cells overexpressing dopamine transporter (MPP+ or DA uptake); type: cell-based; conditions: stable cells overexpressing DAT; substrates MPP+ or DA; mdivi-1 1 or 10 μM
T1 construct: expressed in transfected cells; host or cells: EM4 cells / HEK 293 cells stably transfected with macrophage scavenger receptor
T1 sequence (Q61327 whole entry): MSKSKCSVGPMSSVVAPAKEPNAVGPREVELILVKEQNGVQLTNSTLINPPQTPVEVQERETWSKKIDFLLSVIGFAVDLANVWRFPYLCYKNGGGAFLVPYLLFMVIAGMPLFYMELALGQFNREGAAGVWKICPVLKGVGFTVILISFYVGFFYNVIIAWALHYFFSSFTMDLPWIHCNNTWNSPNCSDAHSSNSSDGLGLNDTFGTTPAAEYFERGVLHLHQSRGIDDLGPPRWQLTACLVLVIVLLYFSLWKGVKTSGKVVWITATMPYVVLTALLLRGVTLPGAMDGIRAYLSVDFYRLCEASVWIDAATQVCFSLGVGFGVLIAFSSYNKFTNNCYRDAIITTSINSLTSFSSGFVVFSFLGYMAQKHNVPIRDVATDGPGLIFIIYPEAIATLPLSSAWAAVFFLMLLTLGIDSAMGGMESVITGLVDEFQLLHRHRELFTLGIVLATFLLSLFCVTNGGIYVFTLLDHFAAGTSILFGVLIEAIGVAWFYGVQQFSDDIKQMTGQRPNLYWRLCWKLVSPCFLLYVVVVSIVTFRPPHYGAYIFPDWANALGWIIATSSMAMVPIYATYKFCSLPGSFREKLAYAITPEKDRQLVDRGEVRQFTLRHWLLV
Procedure: EM4 cells and human embryonic kidney (HEK 293) cells stably transfected with macrophage scavenger to increase their adherence to tissue culture plastic, overexpressing mouse dopamine transporter or empty vector control were grown in 24-well plates. These cells were washed twice and then preincubated for 20 min at 37° C. in Krebs Ringer Hepes (KRH) buffer (125 mM NaCl, 25 mM HEPES, 5.6 mM glucose, 4.8 mM KCl, 1.2 mM KH2PO4, 1.2 mM CaCl2, 1.2 mM MgSO4, pH 7.4), in the presence or absence of mdivi-1 (1, or 10 μM) or GBR12909 (1 μM). This buffer was then replaced with KRH plus or minus MPP+ (200 μM) or dopamine (100 μM), in the presence or absence of mdivi-1 (1, or 10 μM) or GBR12909 (1 μM) for 30 min. To stop the reaction, cells were rinsed with ice-cold buffer and then immediately removed in 5% trichloroacetic acid, sonicated and centrifuged at 15,000 at 4° C. […]. Supernatant was collected for MPP+ and DA quantification using HPLC. Cell pellet was measured for protein concentration using the BCA assay.

[5] = test system: Pink1-/- mice; test: Depolarization (KCl)-evoked striatal DA overflow by in vivo microdialysis in Pink1-/- and Pink1+/+ mice; conditions: mdivi-1 i.p. twice daily for 3 days
Procedure: Stereotactic implantation of guide cannula was performed under ketamine/xylazine (65/6 mg/kg i.p.) anesthesia using the following striatal coordinates, relative to bregma: anterior-posterior +0.5 mm, lateral −2.0 mm, dorsal-ventral −1.5 mm (from surface of brain). Twenty-four hours after recovery from surgery, a microdialysis probe (2-mm membrane, Bioanalytical Systems, Inc., West Lafayette, Ind.) was inserted into the guide cannula and connected to a low torque-dual channel swivel (Instech Laboratories, Inc., Plymouth Meeting, Pa.) which was connected to a syringe pump perfusing with artificial cerebrospinal fluid (aCSF) at 2 μL/min for all studies except mdivi-1 pharmacokinetic studies where the flow rate was 1 μL/min. […] Samples from the same animals were measured for the contents of mdivi-1, MPP+, DA, and its metabolites.

Compound: COc1cc(-n2c(S)nc3ccccc3c2=O)c(Cl)cc1Cl [mdivi-1, 3-(2,4-dichloro-5-methoxyphenyl)-2-sulfanyl-4(3H)-quinazolinone]
- evoked DA overflow in MPTP-lesioned mice [1]: improved
- regeneration of nigral DA neurons terminals or total DA content [1]: absence of promoting regeneration
- time of peak of mdivi-1 in striatal dialysate ([2]; after an i.p. injection): 3 h
- mdivi-1 in the striatal dialysate (ability to cross the blood-brain barrier) ([2]; after i.p. injection, in vivo microdialysis, HPLC): detected
- MPTP induced-loss of dopaminergic cell body terminals and DA content [3]: significantly prevented
- transport activity of DAT [4]: did not affect
- evoked DA overflow in Pink1-/- mice ([5]; 12 month old Pink1-/- mice, high-KCl aCSF): complete restoration
- level of evoked DA release in Pink1+/+ mice ([5]; Pink1+/+ mice): did not alter
